# In patent US20050123514A1, “Increased transduction using ABC transporter substrates and/or inhibitors” (priority 2003, published 2005):
# Where “and” joins values, the source holds several entries; their conditions need not be identical. Identical values can stand only once. Like-named read-outs stand apart in the source and are kept apart here.
# Tests used:
# [1] = system: CD34+ cells from mobilized peripheral blood; type: cell-based, human
# Description: (§1) Supernatant was collected repeatedly 24 to 72 hours after transfection, pooled, and then concentrated by ultracentrifugation at 10,000 rpm for 12 hours. Clinical grade vector was packaged similarly in 293F cells under more stringent laboratory conditions. Supernatant was harvested at 24 hours and 36 hours after transfection. The supernatant is filtered through a series of cartridge filters of decreasing pore diameter, then concentrated by ultrafiltration. Benzonase is added by diafiltration to destroy contaminating plasmid and cellular DNA. The material is applied to a Sephacryl-500 gel filtration column then filtered through a 0.22-micron filter.
# Cells: Frozen CD34 positive cells (greater than 98% purity) derived from adult bone marrow, adult G-CSF mobilized peripheral blood and cord blood were purchased from AllCells (Berkeley, Calif.). Additional peripheral blood CD34 cells mobilized by cyclophosphamide and GCSF and were generous gifts from Dr. Christian Chabannon.
# (§2) Research grade vector transduction with VRX430: CD34+ cells were thawed according to manufacturer's specifications, then cultured at 37° C. for 1 hour. Cells were cultured with an inhibitor at 37° C. for 0 to 90 minutes before addition of vector. MOI 25 to 50 of vector was added to plates coated with 1.5 μg/cm^2 Retronectin (Takara, Japan), then cells were added to the plate and cultured at 37° C.. Twenty-four hours after inhibitor addition, the cells were washed free of vector and drug and were resuspended in fresh medium containing MOI 25 of vector and cultured at 37° C.. CD34+ cells were cultured in IMDM (Invitrogen, Carlsbad, Calif.) supplemented with 1× BIT (Stem Cell Technologies, Vancouver BC) and 25 to 100 ng/ml of TPO, Flt-3L and SCF (R&D Systems, Minneapolis, Minn.). Cells used in in vitro assays were washed free of vector four days after the start of transduction. Cells transplanted into mice were washed free of vector two days after the start of transduction and immediately transplanted into mice.
# Cell culture: Four days after transduction CD34 positive cells were washed free of vector and maintained in liquid culture in IMDM plus 1× BIT supplemented with 25 ng/mL TPO, SCF, and Flt-3L, or plated in CFU and LTC-IC assays. Five hundred to 1000 cells were plated in methylcellulose (H3231, Stem Cell Technologies, Vancouver, BC) supplemented with […] and 1 U/mL EPO. Colony growth was scored two weeks after plating and was analyzed by flow cytometry for GFP expression. One to 3×10^5 cells were overlayed upon MS-5 stromal cells for the LTC-IC assay. The cells underwent demidepopulation weekly, in which half of the medium was removed and replaced with fresh medium. The cells collected in each demidepopulation were analyzed by flow cytometry. After 5 weeks, a mix of adherent and non-adherent cells was plated into methylcellulose supplemented as above for formation of secondary CFU. Colonies were scored three weeks after plating and analyzed for GFP expression by flow cytometry.
# CD34+ cells isolated from mobilized peripheral blood were cultured short and long term.
# [2] = system: human CD34 positive cells; type: cell-based; details: for effect on transduction efficiency (in words): summary statements
# [3] = system: Hematopoietic stem cells (hsc); details: research grade vector
# Description: as §1
# as §2, with “Cells transplanted into mice were washed free of vector two days after the start of transduction and immediately transplanted into mice.” left out
# Cell culture: Four days after transduction CD34 positive cells were washed free of vector and maintained in liquid culture in IMDM plus 1× BIT supplemented with 25 ng/mL TPO, SCF, and Flt-3L, or plated in CFU and LTC-IC assays. […] Colony growth was scored two weeks after plating and was analyzed by flow cytometry for GFP expression. […] The cells collected in each demidepopulation were analyzed by flow cytometry. […] Colonies were scored three weeks after plating and analyzed for GFP expression by flow cytometry.
# [4] = system: SCID repopulating cells (SRC); test: NOD-SCID xenotransplantation of transduced cord blood CD34+ cells (SRC), primary transplant; type: in vivo, NOD-SCID mice
# Description: (§3) Mice: NOD.CB17-Prkdcscid/J (formerly known as NOD/LtSz-Prkdcscid/J) mice were purchased from Jackson Laboratories (Bar Harbor, Me.) and housed in microisolatorcages at Bioqual, Inc (Rockville, Md.). All experiments were approved by the ACUC. 6 to 7 week old mice were sublethally irradiated with 350 cGy (^137Cs source), then transplanted the next day with 2×10^5 cord blood CD34+ cells. Mice sacrificed at 6 to 8 weeks were tested for EGFP expression in CD45+, CD34+, CD33+, CD19+ and CD3+ subsets from the bone marrow using PE conjugated antibodies (clones HI30, 581, WM53, HIB19, UCHT1, respectively, Pharmingen, San Diego, Calif.) by flow cytometry (FACSCaliber, Becton Dickinson, Franklin Lakes, N.J.). Mice sacrificed at 14 weeks were analyzed for EGFP expression in the CD45+, CD34+, CD33+, CD19+ and CD3+ subsets in the marrow, spleen and thymus. For secondary transplantation, half of the total marrow recovered from the primary mouse was transplanted into 350 cGy irradiated secondary recipient NOD.CB17-Prkdcscid/J mice. Mice were sacrificed after 8 weeks and analyzed for EGFP expression in the CD45+, CD33+ and CD19 subsets from the bone marrow.
# [5] = system: SCID repopulating cells (SRC); test: Secondary transplantation of SRCs in NOD/SCID mice; type: in vivo
# Description: as §3
# NOD-SCID mice were given a primary transplantation of stem cells isolated from cord blood in the presence of antibody to the murine IL-2 receptor beta chain to inhibit natural killer cell lysis of the transplanted cells. […] Bone marrow was isolated at 14 weeks post transplantation. Total recovered cells (a mixture of human and mouse) were transplanted into naïve NOD/SCID recipient mice at 15-20×10^6 cells per mouse. During secondary transplantation, mice were not given antibody to the murine IL-2 receptor due to inhibitory cost; therefore the percentage engraftment is much lower. Mice were sacrificed at 8 weeks post transplantation, and the percentage of GFP-positive human cells was assessed by flow cytometry (Table 3).
# [6] = bone marrow, 8 weeks post secondary transplantation, individual mice, cells transduced + verapamil
Molecule,CD34 GFP [1],CFU GFP [1],LTC GFP [1],Secondary CFU GFP [1],effect on transduction efficiency (in words) [1],effect on transduction efficiency (in words) [2],other results
COc1ccc([C@@H]2Sc3ccccc3N(CCN(C)C)C(=O)[C@@H]2OC(C)=O)cc1 [diltiazem],19%,15%,23%,26%,significant increase in transduction efficiency,increased transduction to levels similar to verapamil,
CCCN(CCC)S(=O)(=O)c1ccc(C(=O)O)cc1 [probenecid],9%,8%,11%,4%,did not increase transduction efficiency,,increase in transduction ([2]; hematopoietic cells): less than 2 fold
COC(=O)[C@H]1[C@H]2C[C@@H]3c4[nH]c5cc(OC)ccc5c4CCN3C[C@H]2C[C@@H](OC(=O)c2cc(OC)c(OC)c(OC)c2)[C@@H]1OC [reserpine],3%,5%,5%,3%,did not increase transduction efficiency,did not increase transduction efficiency,
CC(C)c1nc(CN(C)C(=O)N[C@H](C(=O)N[C@@H](Cc2ccccc2)C[C@H](O)[C@H](Cc2ccccc2)NC(=O)OCc2cncs2)C(C)C)cs1 [ritonavir],,,,,increased transduction efficiency,,"percentage of GFP-expressing cells compared with diltiazem or verapamil ([1]; mPB short and long term cultures, ritonavir 5 μM or 20 μM, FIG. 3): did not increase the percentage of GFP-expressing cells as well as diltiazem or verapamil"
COc1ccc(CCN(C)CCCC(C#N)(c2ccc(OC)c(OC)c2)C(C)C)cc1OC (stereo not drawn) [verapamil],,,,56%,,,"CD34 copy number [1]: 3.2; copy numbers, increase versus no verapamil ([3]; long-term cultures): 8 fold; copy numbers, increase versus no verapamil ([3]; short-term cultures): 2 fold; percentage of transduced cells ([3]; with verapamil, both short and long term cultures): 70-80%; frequency and distribution of hematopoietic subsets ([4]; NOD-SCID mice, cells transduced in verapamil): unchanged; increase in SRC transduction over levels in the absence of verapamil ([4]; SRC recovered from the bone marrow of NOD-SCID mice): three to four-fold; GFP expression in repopulating cells ([4]; bone marrow and spleen, 14 weeks post-hsc transfer, FIG. 5): high percentage of GFP positive repopulating stem cells; GFP expression in human CD45, CD34, CD33, CD19 cells ([4]; bone marrow, 6-8 weeks post-hsc transfer, 50 and 75 μg/ml verapamil pooled, FIG. 4): significantly higher percentage of GFP expressing cells; percentage of GFP-positive cells versus transduced without drug ([5]; CD45, CD19 and CD33 lineages, secondary transplantation): increased percentage of GFP-positive cells; % CD45 Engraft. [5, 6]: <0.1% and 0.3%; % GFP CD19 [5, 6]: 100% and 98%; % GFP CD33 [5, 6]: 38% and 51%; % GFP CD45 [5, 6]: 59% and 97%"
sodium orthovanadate,,,,,reduced efficiency of gene transfer,did not increase transduction efficiency,
